# Reference: patent US20090186361A1, “METHODS OF PREDICTING THE PHARMACEUTICAL TOXICITY OF TAXANES” (priority 2008, published 2009)
# Assays:
# Format in all cases: in vivo, human
# MAPT = assay: Regression / mixed model of Toxicity Index on MAPT SNP genotype of recipient subjects; conditions: for Fixed effect Estimate, COL6_2 (MAPT_H1): TT=1, CC=0
# Excerpt: (§1) The GENOMELAB SNPSTREAM™ (Beckman) was utilized to accommodate up to 92,000 genotypes per day. This automated, multiplexed system can process up to 48 SNPs in each well of an arrayed 384-well plate. The SNPSTREAM™ operates at a consistent cost per genotype or per sample, regardless of run throughput, allowing users to cost-effectively zero in on targets with low-throughput studies as well as conduct high-throughput analyses.
# (§2) The SNPSTREAM™ Genotyping System features a protocol with three steps. The technology is based on single-based primer extension technology. The system's high sensitivity delivers results using as little as 2 ng of genomic DNA. SNPWARE™ reagent kits were used. The kits included ready-to-use reagents, all performed in the original PCR plate according to the manufacturer's instructions, and incorporated herein by reference in its entirety.
# (§3) Multiplexed reactions were spatially resolved on a SNPWARE™ Tag Array plate. Each of the 384 wells in a plate contained 16 or 52 unique oligonucleotides of a known sequence, or tag. Each tag on the plate was complementary to one of the tags of the 12 or 48 extension primers, plus four controls to ensure accuracy. After transfer to the Tag Array plate, each SNP was hybridized to its complementary tag. SNPs were then identified by their position in the well.
# (§4) The process involved a multiplex PCR followed by an annealing reaction of the oligonucleotide to the specific PCR product. Next the oligonucleotide was extended by a single base which was fluorescently labeled with a terminating NTP and finally detected by two-colored fluorescence specific for the allele.
# (§5) For each SNP, the -PCRU and -PCRL primers were first used to amplify a relevant DNA fragment surrounding the target SNP site. The components per reaction were: H2O, 3.0 μl; 10× PCR Buffer II, 0.5 μl; MgCl2 (25 mM), 1.0 μl; dNTPs (2.5 mM each), 0.18 μl; PCR Primer Pool (2.5 μM each), 0.1 μl; AMPLITAQ GOLD™ (5 U/μl), 0.125 μl for a total volume of 5.0 μl per reaction.
# (§6) Primer -SNPU or SNPL was then used for single-base extension reaction. The thermocycler program was as follows: Step 1: 96° C. for 3 min; Step 2: 94° C. for 20 sec; Step 3: 40° C. for 11 sec; and Step 5: return to step 2 59 times, and finally to hold at 4° C.
# (§7) A preliminary data analysis focused on the relationship between the Toxicity Index and the recipient subjects' demographic/genetic information. […] Univariate linear regression analysis was conducted first to find significant covariates in predicting the Toxicity Index in one of five cycles, then multivariable analysis was used to determine the best model in fitting the data. A mixed model for repeated measurement was implemented in modeling Toxicity Index in the first five cycles, and also in all cycles. Autoregressive covariance structure was used in the mixed model. SAS and Minitab were used in the analysis.
# (§8) Covariates in the analysis included recoded binary demographic variables (sex, race, site, grade, stage) and recoded binary genetic variables.
# (§9) Multivariable regression analysis was used to find the best model in predicting the Toxicity Index in each of the first five cycles.
# (§10) A mixed model for repeated measurements was implemented to find the best model in fitting the longitudinal data. Autoregressive covariance structure was used in the mixed model. Toxicity Indexes in the first five cycles were included in the analysis.
# (§11) To model Toxicity Indexes in all 21 cycles, a mixed model was used to find the best model. For the paclitaxel, Received dose and MAPT_H14 were significant fixed effects in predicting the longitudinal Toxicity Index in all cycles.
# CYP3A5 = assay: Regression of Toxicity Index on CYP3A5 SNP genotype of recipient subjects; conditions: for Para. Est., TI5 vs CYP3A5_3A (multivariable): multivariable analysis best model; for Para. Est., TI5 vs CYP3A5_3A (multivariable) / Para. Est., TI5 vs CYP3A5_3A1 / Para. Est., TI5 vs CYP3A5_3A: cycle 5
# Excerpt: as §1, §2, §3, §4, §5, §6, §7, §8, §9
# [1] = Regression / mixed model of Toxicity Index on demographic variables and received dose
# Description: as §7, §8, §9, §10, §11
# CYP2C8 gene locus = assay: Regression of Toxicity Index on CYP2C8 SNP genotype of recipient subjects
# Description: The […] ™ Genotyping System features a protocol with three steps. The technology is based on single-based primer extension technology. […] SNPWARE™ reagent kits were used.
# For each SNP, the -PCRU and -PCRL primers were first used to amplify a relevant DNA fragment surrounding the target SNP site. The components per reaction were: H2O, 3.0 μl; 10× PCR Buffer II, 0.5 μl; MgCl2 (25 mM), 1.0 μl; dNTPs (2.5 mM each), 0.18 μl; PCR Primer Pool (2.5 μM each), 0.1 μl; [sequence] GOLD™ (5 U/μl), 0.125 μl for a total volume of 5.0 μl per reaction.
# TUBB gene locus = assay: Regression of Toxicity Index on TUBB SNP genotype of recipient subjects
# Excerpt: as §1, §2, §3, §4, §5, §6
# Thirty (30) recipient subjects already receiving treatment with paclitaxel were screened for the presence of SNPs in the CYP2C8 and TUBB loci. Clinical data from each of the recipient subjects was used to first calculate a Toxicity Index (TI) value for each individual according to the method presented in Example 1, above. The genotype for each recipient subject with regard to the SNPs of CYP2C8 and TUBB was determined using SNPWARE™ and single base extension according to the methods of Example 4, above.
# For the CYP2C8 locus, two genotypes for the rsl 058932 SNP (as shown in FIG. 1) were considered: heterozygous TC and homozygous CC. For the TUBB locus (SNP rs3132584), the heterozygous SNP CA, and the combined homozygous AA and CC variants, were considered.
# as §7, §8, §9
compound,measurement,setting,value
"CC(=O)O[C@@]12CO[C@@H]1C[C@H](O)[C@@]1(C)C(=O)[C@H](O)C3=C(C)[C@@H](OC(=O)[C@H](O)[C@@H](NC(=O)OC(C)(C)C)c4ccccc4)C[C@@](O)([C@@H](OC(=O)c4ccccc4)[C@H]21)C3(C)C (relative stereo) [Docetaxel, Benzenepropanoic acid, β-(((1,1-dimethylethoxy)carbonyl)amino)-α-hydroxy-, 12b-(acetyloxy)-12-(benzoyloxy)-2a,3,4,4a,5,6,9,10,11,12,12a,12b-dodecahydro-4,6,11-trihydroxy-4a,8,13,13-tetramethyl-5-oxo-7,11-methano-1H-cyclodeca(3,4)benz(1,2-b)oxet-9-yl ester trihydrate, (2aR-(2aα,4β,4aβ,6β,9(αR*,βS),11α,12α,12aα,12bα))-]","Fixed effect Estimate, COL6_2 (MAPT_H1)","MAPT; mixed model, longitudinal Toxicity Index in all cycles, Pr > |t| 0.0029",1.1286
same,"Fixed effect Estimate, COL6_2 (MAPT_H1)","MAPT; mixed model, longitudinal Toxicity Index in first five cycles, Pr > |t| 0.0170",1.1407
same,"Para. Est., TI4 vs MAPT_H2 (multivariable)","MAPT; multivariable analysis best model, cycle 4, rs17652121, TT = 1, CC/TC = 0, P-value 0.029",−0.900
same,"Para. Est., TI3 vs MAPT_H13 (multivariable)","MAPT; multivariable regression with Site, cycle 3, rs3785883, GG = 1, AG = 0, P-value 0.003",1.408
same,"Para. Est., TI3 vs MAPT_H1_H21","MAPT; univariate linear regression, cycle 3, rs754512, AA = 1, TA/TT = 0, P-value 0.010",−1.107
same,"Para. Est., TI3 vs MAPT_H1_H22","MAPT; univariate linear regression, cycle 3, rs767058, AA = 1, AG/GG = 0, P-value 0.006",−1.166
same,"Para. Est., TI3 vs MAPT_H1_H23","MAPT; univariate linear regression, cycle 3, rs2055794, GG = 1, AA/AG = 0, P-value 0.010",−1.107
same,"Para. Est., TI3 vs MAPT_H13","MAPT; univariate linear regression, cycle 3, rs3785883, GG = 1, AG = 0, P-value 0.013",−1.245
same,"Para. Est., TI3 vs MAPT_H2","MAPT; univariate linear regression, cycle 3, rs17652121, TT = 1, CC/TC = 0, P-value 0.006",−1.166
same,"Para. Est., TI4 vs MAPT_H1_H21","MAPT; univariate linear regression, cycle 4, rs754512, AA = 1, TA/TT = 0, P-value 0.023",−0.953
same,"Para. Est., TI4 vs MAPT_H1_H22","MAPT; univariate linear regression, cycle 4, rs767058, AA = 1, AG/GG = 0, P-value 0.029",−0.900
same,"Para. Est., TI4 vs MAPT_H1_H23","MAPT; univariate linear regression, cycle 4, rs2055794, GG = 1, AA/AG = 0, P-value 0.023",−0.953
same,"Para. Est., TI4 vs MAPT_H2","MAPT; univariate linear regression, cycle 4, rs17652121, TT = 1, CC/TC = 0, P-value 0.029",−0.900
same,"Para. Est., TI5 vs CYP3A5_3A (multivariable)","CYP3A5; rs776746, AG = 1, GG/AA = 0, P-value 0.024",−1.739
same,"Para. Est., TI4 vs CYP3A5_3A1","CYP3A5; univariate linear regression, cycle 4, rs15524, TC = 1, CC/TT = 0, P-value 0.045",−1.079
same,"Para. Est., TI4 vs CYP3A5_3A","CYP3A5; univariate linear regression, cycle 4, rs776746, AG = 1, GG/AA = 0, P-value 0.045",−1.079
same,"Para. Est., TI5 vs CYP3A5_3A1","CYP3A5; univariate linear regression, rs15524, TC = 1, CC/TT = 0, P-value 0.024",−1.739
same,"Para. Est., TI5 vs CYP3A5_3A","CYP3A5; univariate linear regression, rs776746, AG = 1, GG/AA = 0, P-value 0.024",−1.739
same,"Fixed effect Estimate, Grade 2","[1]; mixed model, longitudinal Toxicity Index in all cycles, Pr > |t| 0.0027",−0.9840
same,"Fixed effect Estimate, Grade 2","[1]; mixed model, longitudinal Toxicity Index in first five cycles, Pr > |t| 0.0106",−1.0426
same,"Para. Est., TI3 vs Site (multivariable)","[1]; multivariable regression with MAPT_H13, cycle 3, Prostate Gland = 1, Others = 0, P-value 0.001",2.365
same,"Para. Est., TI3 vs Grade","[1]; univariate linear regression, cycle 3, Poorly Dif = 1, Others = 0, P-value 0.006",−1.609
same,"Para. Est., TI3 vs Site","[1]; univariate linear regression, cycle 3, Prostate Gland = 1, Others = 0, P-value 0.046",1.962
"CC(=O)O[C@H]1C(=O)[C@@]2(C)[C@H]([C@H](OC(=O)c3ccccc3)[C@]3(O)C[C@H](OC(=O)[C@H](O)[C@@H](NC(=O)c4ccccc4)c4ccccc4)C(C)=C1C3(C)C)[C@]1(OC(C)=O)CO[C@@H]1C[C@@H]2O [Paclitaxel, (2aR,4S,4aS,6R,9S,11S,12S,12aR,12bS)-1,2a,3,4,4a,6,9,10,11,12,12a,12b-Dodecahydro-4,6,9,11,12,12b-hexahydroxy-4a,8,13,13-tetramethyl-7,11-methano-5H-cyclodeca(3,4)benz(1,2-b)oxet-5-one 6,12b-diacetate, 12-benzoate, 9-ester with (2R,3S)-N-benzoyl-3-phenylisoserine]","Coef, regression TI1 versus CYP2C8_2_31, TUBB2: predictor CYP2C8_2_31","CYP2C8 gene locus; 30 recipient subjects, rs1058932, heterozygous TC vs homozygous CC, P 0.020",−1.1100
same,"Para. Est., TI4 vs CYP2C8_1C (multivariable)","CYP2C8 gene locus; multivariable analysis best model, cycle 4, rs17110453, AA = 1, CA = 0, P-value 0.033",−1.267
same,"Para. Est., TI1 vs CYP2C8_2_31 (multivariable)","CYP2C8 gene locus; multivariable regression with TUBB2, cycle 1, rs1058932, CC = 1, TC = 0, P-value 0.020",−1.110
same,"Para. Est., TI1 vs CYP2C8_2_31","CYP2C8 gene locus; univariate linear regression, cycle 1, rs1058932, CC = 1, TC = 0, P-value 0.021",−1.168
same,"Para. Est., TI4 vs CYP2C8_1C","CYP2C8 gene locus; univariate linear regression, cycle 4, rs17110453, AA = 1, CA = 0, P-value 0.033",−1.267
same,"Coef, regression TI1 versus CYP2C8_2_31, TUBB2: predictor TUBB2","TUBB gene locus; 30 recipient subjects, rs3132584, heterozygous CA vs combined AA and CC, P 0.039",−0.9135
same,"Para. Est., TI2 vs TUBB4 (multivariable)","TUBB gene locus; multivariable analysis best model, cycle 2, rs1061397, CC = 1, TC/TT = 0, P-value 0.037",−1.185
same,"Para. Est., TI1 vs TUBB2 (multivariable)","TUBB gene locus; multivariable regression with CYP2C8_2_31, cycle 1, rs3132584, CA = 1, CC/AA = 0, P-value 0.039",0.914
same,"Para. Est., TI1 vs TUBB1","TUBB gene locus; univariate linear regression, cycle 1, rs8233, AG = 1, AA/GG = 0, P-value 0.042",0.975
same,"Para. Est., TI1 vs TUBB2","TUBB gene locus; univariate linear regression, cycle 1, rs3132584, CA = 1, CC/AA = 0, P-value 0.042",0.975
same,"Para. Est., TI2 vs TUBB3","TUBB gene locus; univariate linear regression, cycle 2, rs25527, CC = 1, TC/TT = 0, P-value 0.047",−1.062
same,"Para. Est., TI2 vs TUBB4","TUBB gene locus; univariate linear regression, cycle 2, rs1061397, CC = 1, TC/TT = 0, P-value 0.037",−1.185
same,"Fixed effect Estimate, COL18_3 (MAPT_H14)","MAPT; mixed model for repeated measurements, longitudinal Toxicity Index in first five cycles, Pr > |t| 0.0118",0.8918
same,"Fixed effect Estimate, COL18_3 (MAPT_H14)","MAPT; mixed model, longitudinal Toxicity Index in all 21 cycles, Pr > |t| 0.0114",0.6989
same,"Para. Est., TI3 vs MAPT_H14 (multivariable)","MAPT; multivariable analysis best model, cycle 3, rs242557, TC = 1, CC/TT = 0, P-value 0.012",1.236
same,"Para. Est., TI1 vs MAPT_H14","MAPT; univariate linear regression, cycle 1, rs242557, TC = 1, CC/TT = 0, P-value 0.016",1.151
same,"Para. Est., TI3 vs MAPT_H14","MAPT; univariate linear regression, cycle 3, rs242557, TC = 1, CC/TT = 0, P-value 0.012",1.236
same,"Para. Est., TI5 vs CYP3A5_3A (multivariable)","CYP3A5; rs776746, GG = 1, AG = 0, P-value 0.022",1.477
same,"Para. Est., TI5 vs CYP3A5_3A1","CYP3A5; univariate linear regression, rs15524, TT = 1, TC = 0, P-value 0.022",1.477
same,"Para. Est., TI5 vs CYP3A5_3A","CYP3A5; univariate linear regression, rs776746, GG = 1, AG = 0, P-value 0.022",1.477
same,"Fixed effect Estimate, Received Dose2","[1]; mixed model, longitudinal Toxicity Index in all 21 cycles, Pr > |t| 0.0244",0.002363
